The values below come from patent publication US11178869B2, “Microbiocidal quinoline (thio)carboxamide derivatives” (priority 2017, dated 2021).

Read-outs that look alike come from different tables or passages of the source.

For series [1], the system named is Botryotinia fuckeliana (Botrytis cinerea). Kind of series: Botryotinia fuckeliana (Botrytis cinerea) / liquid culture (gray mould). It is filed as cell-based. The following applies: 72 h, read-out: disease control.
Series [2] has as its system Fusarium culmorum. Kind of series: microbe, parasite or virus in culture. In kind it is cell-based. The settings on record: read-out: disease control.
Series [3] concerns Glomerella lagenarium (Colletotrichum lagenarium). Description: Glomerella lagenarium (Colletotrichum lagenarium) / liquid culture (anthracnose). It is filed as cell-based. The following applies: Colletotrichum orbiculare, read-out: disease control.
Series [4] deals with Monographella nivalis (Microdochium nivale). Description: Monographella nivalis (Microdochium nivale) / liquid culture (foot rot cereals). It is filed as cell-based. The settings on record: read-out: disease control.
Series [5] has as its system Magnaporthe grisea (Pyricularia oryzae). Kind of series: microbe, parasite or virus in culture. It is filed as cell-based. The following applies: read-out: control of Magnaporthe grisea.
Series [6] deals with Fusarium culmorum. Kind of series: whole plant or invertebrate. In kind it is in vivo, Fusarium culmorum on wheat spikelets cv. Monsun. The settings on record: in Triticum aestivum, 144 h, read-out: control of Fusarium culmorum.
The next series relates to Sclerotinia sclerotiorum. Description: Sclerotinia sclerotiorum / liquid culture (cottony rot). The following applies: read-out: control of Sclerotinia sclerotiorum.
The next series relates to Gaeumannomyces graminis. Description: Gaeumannomyces graminis / liquid culture (take-all of cereals). In kind it is cell-based. The settings on record: compared to untreated control, 4-5 days after application.
The mark [7] stands for this setting: 200 ppm, compared to untreated control, growth inhibition photometrically 3-4 days after application.
Setting [8] is: 200 ppm, compared to untreated control, growth inhibition photometrically 4-5 days after application.

Procedure for Sclerotinia sclerotiorum: Sclerotinia sclerotiorum/Liquid Culture (Cottony Rot)
Mycelia fragments of a newly grown liquid culture of the fungus are directly mixed into nutrient broth (Vogels broth). After placing a (DMSO) solution of test compound into a microtiter plate (96-well format) the nutrient broth containing the fungal material is added. The test plates are incubated at 24° C. and the inhibition of growth is determined photometrically 3-4 days after application.

`CC(C)[C@@](C)(C#Cc1ccccc1)NC(=O)c1cnc2c(F)cccc2c1` (single isomer, unassigned) [Compound G-7]: the inhibition of growth at 200 ppm (in series [1] (setting [7]); in the series with Fusarium culmorum [2]; in [3] (setting [7]); in series [4] (setting [8])) was at least 80% in each case. Further, the inhibition of growth at 20 ppm (in [5]; in the series with Sclerotinia sclerotiorum) was at least 80% in each case. In the series on Fusarium culmorum [6], the pest or weed control at 200 ppm is at least 80%.
Regarding `CC(CC#CC1CC1)(CC(F)(F)F)NC(=O)c1cnc2c(F)cccc2c1` (stereo not drawn) [Compound E-1, N-[4-cyclopropyl-1-methyl-1-(2,2,2-trifluoroethyl)but-3-ynyl]-8-fluoro-quinoline-3-carboxamide], the melting point (in general, the temperature, or range, at which the solid turns liquid) was in the range of 110 to 112 °C. For the same compound, the inhibition of growth at 200 ppm in series [1] is at least 80%. In the series with Fusarium culmorum [2], the inhibition of growth at 200 ppm is at least 80%. The inhibition of growth at 200 ppm in series [3] was at least 80%. Moreover, in series [4], the inhibition of growth at 200 ppm is at least 80%.
`CC(C)C(C#Cc1ccccc1)NC(=O)c1cnc2c(F)cccc2c1` (stereo not drawn) [Compound F-3, 8-fluoro-N-(1-isopropyl-3-phenyl-prop-2-ynyl)quinoline-3-carboxamide]: the melting point fell in the range of 156 to 158 °C. Further, the inhibition of growth at 200 ppm in series [1] (setting [7]) was at least 80%. Also, the inhibition of growth at 200 ppm in the series with Fusarium culmorum [2] is at least 80%. Also, the inhibition of growth at 200 ppm in series [3] (setting [7]) is at least 80%. For the same compound, the inhibition of growth at 200 ppm in series [4] (setting [8]) was at least 80%. The inhibition of growth at 20 ppm in series [5] is at least 80%. The pest or weed control at 200 ppm with Fusarium culmorum [6] is at least 80%.
The compound `CCC(C)(C#Cc1ccccc1)NC(=O)c1cnc2c(C)cccc2c1` (stereo not drawn) [Compound F-9, N-(1-ethyl-1-methyl-3-phenyl-prop-2-ynyl)-8-methyl-quinoline-3-carboxamide] displayed a melting point of 135 to 137 °C. Moreover, the inhibition of growth at 200 ppm in series [1] (setting [7]) was at least 80%. Besides, the inhibition of growth at 200 ppm in the series with Fusarium culmorum [2] is at least 80%. The inhibition of growth at 200 ppm in [3] (setting [7]) is at least 80%. The inhibition of growth at 200 ppm in series [4] (setting [8]) was at least 80%. Further, in [5], the inhibition of growth at 20 ppm was at least 80%. Besides, the pest or weed control at 200 ppm in the series on Fusarium culmorum [6] is at least 80%. Besides, the inhibition of growth at 20 ppm in the series with Sclerotinia sclerotiorum is at least 80%.
In the case of `CC(C)C(C)(C#Cc1ccccc1F)NC(=O)c1cnc2c(F)cccc2c1` (stereo not drawn) [Compound F-12, 8-fluoro-N-[3-(2-fluorophenyl)-1-isopropyl-1-methyl-prop-2-ynyl]quinoline-3-carboxamide], the inhibition of growth at 200 ppm (in series [1] (setting [7]); in the series with Fusarium culmorum [2]; in series [3] (setting [7]); in series [4] (setting [8])) was at least 80% in each case. Moreover, the inhibition of growth at 20 ppm (in series [5]; with Gaeumannomyces graminis; in the series with Sclerotinia sclerotiorum) was at least 80% throughout. In the series on Fusarium culmorum [6], the pest or weed control at 200 ppm is at least 80%.
Take `Cc1ccccc1C#CC(C)(NC(=O)c1cnc2c(F)cccc2c1)C(C)C` (stereo not drawn) [Compound F-13, 8-fluoro-N-[1-isopropyl-1-methyl-3-(o-tolyl)prop-2-ynyl]quinoline-3-carboxamide]: the melting point fell in the range of 138 to 141 °C. Further, the inhibition of growth at 200 ppm in [1] (setting [7]) was at least 80%. In addition, the inhibition of growth at 200 ppm in the series with Fusarium culmorum [2] was at least 80%. Further, the inhibition of growth at 200 ppm in series [3] (setting [7]) was at least 80%. For the same compound, the inhibition of growth at 200 ppm in series [4] (setting [8]) is at least 80%. Further, in [5], the inhibition of growth at 20 ppm was at least 80%. In the series on Gaeumannomyces graminis, this compound yielded an inhibition of growth at 20 ppm of at least 80%.
The compound `CCC(C)(C#Cc1ccccc1C)NC(=O)c1cnc2c(F)cccc2c1` (stereo not drawn) [Compound F-15, N-[1-ethyl-1-methyl-3-(o-tolyl)prop-2-ynyl]-8-fluoro-quinoline-3-carboxamide] yielded a melting point of 143 to 146 °C. Moreover, in series [1] (setting [7]), the inhibition of growth at 200 ppm was at least 80%. Further, the inhibition of growth at 200 ppm in the series on Fusarium culmorum [2] was at least 80%. The inhibition of growth at 200 ppm in series [3] (setting [7]) is at least 80%. The inhibition of growth at 200 ppm in series [4] (setting [8]) is at least 80%. Also, in series [5], the inhibition of growth at 20 ppm is at least 80%. Besides, the inhibition of growth at 20 ppm with Sclerotinia sclerotiorum was at least 80%.
Consider `Cc1ccc(F)cc1C#CC(C)(C)NC(=O)c1cnc2c(F)cccc2c1` [Compound F-24, 8-fluoro-N-[3-(5-fluoro-2-methyl-phenyl)-1,1-dimethyl-prop-2-ynyl]quinoline-3-carboxamide], for which the inhibition of growth at 200 ppm (in series [1] (setting [7]); in the series with Fusarium culmorum [2]; in series [3] (setting [7]); in [4] (setting [8])) was at least 80% in each case. Further, in the series on Fusarium culmorum [6], the pest or weed control at 200 ppm is at least 80%. Also, the inhibition of growth at 20 ppm in the series on Gaeumannomyces graminis is at least 80%.
On to `CC(C)(C#Cc1ccc(F)cc1F)NC(=O)c1cnc2c(F)cccc2c1` [Compound F-25, N-[3-(2,4-difluorophenyl)-1,1-dimethyl-prop-2-ynyl]-8-fluoro-quinoline-3-carboxamide], for which the inhibition of growth at 200 ppm (in series [1] (setting [7]); in the series with Fusarium culmorum [2]; in series [3] (setting [7]); in series [4] (setting [8])) was at least 80% each time. Further, the pest or weed control at 200 ppm in the series on Fusarium culmorum [6] was at least 80%. The compound further yielded an inhibition of growth at 20 ppm with Gaeumannomyces graminis of at least 80%.
Compound `CC(C)C(C)(C#Cc1ccccc1)NC(=O)c1cnc2c(F)cccc2c1` (stereo not drawn) [Compound F-46, 8-fluoro-N-(1-isopropyl-1-methyl-3-phenyl-prop-2-ynyl)quinoline-3-carboxamide] came in with a melting point of 118 to 122 °C. In series [1] (setting [7]), the inhibition of growth at 200 ppm is at least 80%. For the same compound, the inhibition of growth at 200 ppm with Fusarium culmorum [2] was at least 80%. Besides, the inhibition of growth at 200 ppm in series [3] (setting [7]) is at least 80%. In series [4] (setting [8]), the inhibition of growth at 200 ppm is at least 80%. For the same compound, the inhibition of growth at 20 ppm in series [5] was at least 80%. Also, the pest or weed control at 200 ppm in the series with Fusarium culmorum [6] was at least 80%. In addition, in the series with Gaeumannomyces graminis, the inhibition of growth at 20 ppm is at least 80%.
In the case of `Cc1ccccc1C#CC(C)(C)NC(=O)c1cnc2c(F)cccc2c1` [Compound F-47, N-[1,1-dimethyl-3-(o-tolyl)prop-2-ynyl]-8-fluoro-quinoline-3-carboxamide], the melting point was in the range of 156 to 160 °C. For the same compound, the inhibition of growth at 200 ppm in [1] (setting [7]) is at least 80%. Besides, the inhibition of growth at 200 ppm with Fusarium culmorum [2] was at least 80%. Also, the inhibition of growth at 200 ppm in series [3] (setting [7]) was at least 80%. Moreover, the inhibition of growth at 200 ppm in series [4] (setting [8]) was at least 80%. The inhibition of growth at 20 ppm in [5] is at least 80%. Besides, the pest or weed control at 200 ppm in the series with Fusarium culmorum [6] was at least 80%. The same compound had an inhibition of growth at 20 ppm in the series on Gaeumannomyces graminis of at least 80%.
`CC(C)(C#Cc1cccc(C(F)(F)F)c1)NC(=O)c1cnc2c(F)cccc2c1` [Compound F-48, N-[1,1-dimethyl-3-[3-(trifluoromethyl)phenyl]prop-2-ynyl]-8-fluoro-quinoline-3-carboxamide] gave a melting point of 181 to 184 °C. Also, in series [1] (setting [7]), the inhibition of growth at 200 ppm is at least 80%. For the same compound, the inhibition of growth at 200 ppm in the series on Fusarium culmorum [2] was at least 80%. For the same compound, the inhibition of growth at 200 ppm in [3] (setting [7]) was at least 80%. Also, the inhibition of growth at 200 ppm in series [4] (setting [8]) was at least 80%. The inhibition of growth at 20 ppm in series [5] was at least 80%. This compound registered an inhibition of growth at 20 ppm in the series with Gaeumannomyces graminis of at least 80%.
`CC(C)(C#Cc1ccccc1)NC(=O)c1cnc2ccccc2c1` [Compound F-49, N-(1,1-dimethyl-3-phenyl-prop-2-ynyl)quinoline-3-carboxamide] showed a melting point of 136 to 141 °C. In series [1] (setting [7]), the inhibition of growth at 200 ppm is at least 80%. For the same compound, the inhibition of growth at 200 ppm in the series on Fusarium culmorum [2] was at least 80%. The inhibition of growth at 200 ppm in series [3] (setting [7]) is at least 80%. Further, the inhibition of growth at 200 ppm in [4] (setting [8]) was at least 80%. Moreover, the inhibition of growth at 20 ppm in series [5] was at least 80%. In addition, the pest or weed control at 200 ppm in the series on Fusarium culmorum [6] is at least 80%. Moreover, the inhibition of growth at 20 ppm with Gaeumannomyces graminis was at least 80%.
Take `Cc1nc2c(F)cccc2cc1C(=O)NC(C)(C)C#Cc1ccccc1` [Compound F-50, N-(1,1-dimethyl-3-phenyl-prop-2-ynyl)-8-fluoro-2-methyl-quinoline-3-carboxamide]: the melting point was in the range of 118 to 123 °C. Further, the inhibition of growth at 200 ppm in series [1] (setting [7]) was at least 80%. The inhibition of growth at 200 ppm with Fusarium culmorum [2] was at least 80%. The inhibition of growth at 200 ppm in [3] (setting [7]) was at least 80%. In series [5], the inhibition of growth at 20 ppm is at least 80%. Further, the inhibition of growth at 20 ppm in the series on Sclerotinia sclerotiorum is at least 80%.
Turning to `Cc1c(C(=O)NC(C)(C)C#Cc2ccccc2)cnc2c(F)cccc12` [Compound F-51, N-(1,1-dimethyl-3-phenyl-prop-2-ynyl)-8-fluoro-4-methyl-quinoline-3-carboxamide], the inhibition of growth at 200 ppm (in series [1] (setting [7]); in the series on Fusarium culmorum [2]; in series [3] (setting [7]); in series [4] (setting [8])) was at least 80% throughout. Also, the inhibition of growth at 20 ppm (in series [5]; in the series on Gaeumannomyces graminis; with Sclerotinia sclerotiorum) was at least 80% throughout.
In turn, `C#CC(C)(C)NC(=O)c1cnc2c(F)cccc2c1` [Compound F-54, N-(1,1-dimethylprop-2-ynyl)-8-fluoro-quinoline-3-carboxamide] gave a melting point of 148 to 150 °C. The inhibition of growth at 200 ppm with Fusarium culmorum [2] is at least 80%. Besides, the inhibition of growth at 200 ppm in series [4] (setting [8]) was at least 80%.
Consider `CC(C)C[C@](C)(C#Cc1ccccc1)NC(=O)c1cnc2c(F)cccc2c1` [Compound G-6, N-[(1R)-1,3-dimethyl-1-(2-phenylethynyl)butyl]-8-fluoro-quinoline-3-carboxamide], for which the melting point was in the range of 128 to 130 °C. Further, in series [1] (setting [7]), the inhibition of growth at 200 ppm was at least 80%. Besides, the inhibition of growth at 200 ppm with Fusarium culmorum [2] is at least 80%. The inhibition of growth at 200 ppm in series [4] (setting [8]) is at least 80%. The inhibition of growth at 20 ppm in series [5] is at least 80%. Also, the inhibition of growth at 20 ppm in the series with Gaeumannomyces graminis is at least 80%.
